# Measurements published in patent US20250082630A1, “METHODS OF TREATING BRAIN TUMOURS AND NEUROBLASTOMAS” (AstraZeneca AB, priority 2021, published 2025).
# pIC50: −log10 of the molar value.
# What was measured:
# PARP2 = PARP2 (Homo sapiens (Human), UniProt Q9UGN5); assay: PARP fluorescence anisotropy binding assay, PARP2
# Procedure: Recombinant full length PARP2 protein was diluted to 6 nM with 50 mM Tris pH 8, 0.001% Triton X100, 10 mM MgCl2, 150 mM NaCl and incubated for four hours with an equivalent volume of 2 nM fluorescent probe diluted with 50 mM Tris pH 8, 0.001% Triton X100, 10 mM MgCl2, 150 mM NaCl. The final DMSO concentration of the probe was kept below 1% (v/v).
# (§1) Fluorescence anisotropy of the probe when bound to the proteins was measured using a BMG Pherastar FSX® in the presence of test compounds or solvent control and the effect on anisotropy determined. % inhibition values for different test compound concentrations were calculated and fitted to a four parameter logistic plot in order to determine the IC50 value.
# PARP5a = PARP5a (Homo sapiens (Human), UniProt O95271); assay: PARP fluorescence anisotropy binding assay, PARP5a
# Chain of PARP5a (O95271 1112-1317): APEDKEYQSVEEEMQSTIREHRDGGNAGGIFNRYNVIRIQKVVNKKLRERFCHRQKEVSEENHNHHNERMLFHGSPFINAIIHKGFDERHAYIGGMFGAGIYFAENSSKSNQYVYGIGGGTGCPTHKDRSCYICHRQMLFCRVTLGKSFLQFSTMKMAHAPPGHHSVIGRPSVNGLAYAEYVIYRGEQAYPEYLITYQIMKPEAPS
# Procedure: Recombinant PARP5a binding domain was diluted to 160 nM with 50 mM Tris pH 8, 0.001% Triton X100, 10 mM MgCl2, 150 mM NaCl and incubated for four hours with an equivalent volume of 6 nM fluorescent probe diluted with 50 mM Tris pH 8, 0.001% Triton X100, 10 mM MgCl2, 150 mM NaCl. The final DMSO concentration of the probe was kept below 1% (v/v).
# Fluorescence anisotropy of the probe when bound to the proteins was measured using a BMG Pherastar FSX® in the presence of test compounds or solvent control and the effect on anisotropy determined. % inhibition values for different test compound concentrations were calculated and fitted to a four parameter logistic plot in order to determine the IC50 value. Where necessary, the compound K, can be determined from the IC50 value using a Munson Rodbard equation defined in Anal Biochem. 1980 Sep.
# PARP6 = PARP6 (Homo sapiens (Human), UniProt Q2NL67); assay: PARP fluorescence anisotropy binding assay, PARP6
# Chain of PARP6 (Q2NL67 whole entry): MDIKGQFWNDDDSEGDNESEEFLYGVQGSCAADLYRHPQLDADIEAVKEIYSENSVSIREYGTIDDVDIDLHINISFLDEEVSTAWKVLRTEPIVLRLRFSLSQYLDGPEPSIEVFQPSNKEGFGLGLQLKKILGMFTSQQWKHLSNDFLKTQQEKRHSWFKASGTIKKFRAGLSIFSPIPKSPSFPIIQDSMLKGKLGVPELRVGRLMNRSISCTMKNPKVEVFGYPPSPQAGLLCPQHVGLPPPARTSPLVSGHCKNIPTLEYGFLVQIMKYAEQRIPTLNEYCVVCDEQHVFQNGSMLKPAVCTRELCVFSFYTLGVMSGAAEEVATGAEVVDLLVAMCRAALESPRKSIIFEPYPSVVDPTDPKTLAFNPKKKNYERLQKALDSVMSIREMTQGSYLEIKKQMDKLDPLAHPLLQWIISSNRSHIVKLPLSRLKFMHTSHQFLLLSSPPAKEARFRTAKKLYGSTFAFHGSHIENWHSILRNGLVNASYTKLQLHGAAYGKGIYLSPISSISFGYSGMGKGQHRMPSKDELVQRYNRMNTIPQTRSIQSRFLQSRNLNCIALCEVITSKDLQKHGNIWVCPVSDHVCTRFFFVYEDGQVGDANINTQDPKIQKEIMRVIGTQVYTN
# Procedure: Recombinant full length GST tagged PARP6 protein was diluted to 160 nM with 50 mM Tris pH 8, 0.001% Triton X100, 10 mM MgCl2, 150 mM NaCl and incubated for four hours with an equivalent volume of 6 nM fluorescent probe diluted with 50 mM Tris pH 8, 0.001% Triton X100, 10 mM MgCI2, 150 mM NaCl. The final DMSO concentration of the probe was kept below 1% (v/v).
# as §1, with “value. Where necessary, the compound K, can be determined from the IC50 value using a Munson Rodbard equation defined in Anal Biochem. 1980 Sep. 1; 107(1):220-39 and is based on the known KD of the probe binding to the relevant PARP protein” for “value.”
# PARP1 = PARP1 (Homo sapiens (Human), UniProt P09874); assay: PARP fluorescence anisotropy binding assay, PARP1
# Chain of PARP1 (P09874 whole entry): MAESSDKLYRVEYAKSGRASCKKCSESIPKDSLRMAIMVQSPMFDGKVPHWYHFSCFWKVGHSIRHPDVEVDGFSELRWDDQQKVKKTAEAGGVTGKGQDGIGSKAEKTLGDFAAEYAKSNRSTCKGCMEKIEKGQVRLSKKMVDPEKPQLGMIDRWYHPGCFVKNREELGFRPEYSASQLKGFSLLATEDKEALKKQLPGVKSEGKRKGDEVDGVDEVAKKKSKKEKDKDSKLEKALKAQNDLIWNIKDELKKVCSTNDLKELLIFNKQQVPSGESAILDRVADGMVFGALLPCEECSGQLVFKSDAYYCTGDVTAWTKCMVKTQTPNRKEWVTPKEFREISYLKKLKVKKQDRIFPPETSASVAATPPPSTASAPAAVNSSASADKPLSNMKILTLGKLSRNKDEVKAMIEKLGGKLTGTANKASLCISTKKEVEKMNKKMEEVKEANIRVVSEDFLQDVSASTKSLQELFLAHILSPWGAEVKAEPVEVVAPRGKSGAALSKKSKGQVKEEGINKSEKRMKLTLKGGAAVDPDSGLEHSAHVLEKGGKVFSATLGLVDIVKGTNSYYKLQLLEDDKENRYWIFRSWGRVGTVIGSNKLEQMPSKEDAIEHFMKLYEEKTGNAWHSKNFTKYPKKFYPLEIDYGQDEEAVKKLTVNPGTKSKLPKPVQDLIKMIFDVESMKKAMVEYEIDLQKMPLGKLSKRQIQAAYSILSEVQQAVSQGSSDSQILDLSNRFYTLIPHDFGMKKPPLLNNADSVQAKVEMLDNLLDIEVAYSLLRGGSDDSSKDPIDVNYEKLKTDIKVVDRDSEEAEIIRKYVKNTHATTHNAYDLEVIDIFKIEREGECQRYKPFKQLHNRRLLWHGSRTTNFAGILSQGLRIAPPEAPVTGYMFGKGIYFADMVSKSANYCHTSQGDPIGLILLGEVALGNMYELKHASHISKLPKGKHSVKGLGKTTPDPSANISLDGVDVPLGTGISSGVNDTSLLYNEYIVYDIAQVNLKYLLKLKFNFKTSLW
# MDR1 and BCRP = assay: In vitro human transporter efflux (MDCK-MDR1-BCRP); conditions: human, pH 7.4
# Procedure: MDCKII cells expressing MDR1 and BCRP were seeded onto polyethylene membranes in 96-well Transwell insert systems at a density to form a confluent cell monolayer. […] The final percent volume of the organic solvent was less than 1%. Permeation of the test compounds from A to B direction and from B to A direction was determined over a 90-min incubation at 37° C. and 5% CO2 with a relative humidity of 95%. At the end of the incubation, samples from the apical and basolateral side were taken and then precipitated with cold acetonitrile containing internal standard. After centrifugation at 4000 rpm, the supernatant was diluted with 0.1% formic acid aqueous solution and quantified by LC-MS/MS. The integrity of the cell monolayers was confirmed by using the marker Lucifer yellow.
# The permeability coefficient (1×10-6 cm/s) was calculated using the following equation
# (1) The Efflux Ratio was Calculated Using the Following Equation
# Efflux ratio=Papp(B to A)/Papp(A to B)
# (2) where dCr/dt is the cumulative concentration of the compound in the receiver chamber as a function of time (in μM/s); Vr is the solution volume in the receiver chamber (0.1 ml on the apical side and 0.3 ml on the basolateral side); A is the surface area for the transport, that is, 0.11 cm2 for the area of the monolayer; and C0 is the initial concentration in the donor chamber (in μM).
# PARP3 = PARP3 (Homo sapiens (Human), UniProt Q9Y6F1); assay: PARP fluorescence anisotropy binding assay, PARP3
# Chain of PARP3 (Q9Y6F1 whole entry): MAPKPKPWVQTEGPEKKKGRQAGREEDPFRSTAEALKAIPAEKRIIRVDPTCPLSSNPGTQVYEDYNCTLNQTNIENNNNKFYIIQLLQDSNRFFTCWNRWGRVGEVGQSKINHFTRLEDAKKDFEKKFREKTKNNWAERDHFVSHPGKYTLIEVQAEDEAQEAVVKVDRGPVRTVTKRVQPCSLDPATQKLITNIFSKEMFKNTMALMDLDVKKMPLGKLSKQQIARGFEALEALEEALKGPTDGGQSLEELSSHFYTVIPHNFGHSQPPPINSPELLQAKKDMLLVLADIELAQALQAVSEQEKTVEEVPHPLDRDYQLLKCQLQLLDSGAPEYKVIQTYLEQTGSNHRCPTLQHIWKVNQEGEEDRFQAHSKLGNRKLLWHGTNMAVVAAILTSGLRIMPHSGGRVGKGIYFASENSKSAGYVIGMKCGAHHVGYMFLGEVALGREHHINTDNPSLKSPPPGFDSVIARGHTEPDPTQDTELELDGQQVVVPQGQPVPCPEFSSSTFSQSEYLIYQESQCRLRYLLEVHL
# Procedure: Recombinant full length PARP3 protein was diluted to 100 nM with 50 mM Tris pH 8, 0.001% Triton X100, 10 mM MgCl2, 150 mM NaCl and incubated for four hours with an equivalent volume of 6 nM fluorescent probe diluted with 50 mM Tris pH 8, 0.001% Triton X100, 10 mM MgCl2, 150 mM NaCl. The final DMSO concentration of the probe was kept below 1% (v/v).
# Chain of PARP2 (Q9UGN5 whole entry): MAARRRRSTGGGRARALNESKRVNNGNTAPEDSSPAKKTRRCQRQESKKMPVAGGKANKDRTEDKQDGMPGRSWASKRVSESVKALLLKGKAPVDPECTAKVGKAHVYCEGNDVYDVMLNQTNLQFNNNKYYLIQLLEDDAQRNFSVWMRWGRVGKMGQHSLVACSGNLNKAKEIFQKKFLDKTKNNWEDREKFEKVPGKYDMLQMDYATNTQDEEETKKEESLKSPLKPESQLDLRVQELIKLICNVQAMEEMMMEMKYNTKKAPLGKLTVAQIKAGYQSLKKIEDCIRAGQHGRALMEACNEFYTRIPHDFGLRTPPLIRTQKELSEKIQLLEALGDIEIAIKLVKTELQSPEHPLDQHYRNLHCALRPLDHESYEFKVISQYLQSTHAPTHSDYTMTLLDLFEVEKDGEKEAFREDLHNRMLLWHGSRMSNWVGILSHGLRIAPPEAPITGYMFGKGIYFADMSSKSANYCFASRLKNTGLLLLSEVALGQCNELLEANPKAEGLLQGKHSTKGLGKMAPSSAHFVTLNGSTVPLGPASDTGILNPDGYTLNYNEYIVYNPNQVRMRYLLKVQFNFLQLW
Compound,pIC50 (PARP2),pIC50 (PARP5a),pIC50 (PARP6),pIC50 (PARP1),efflux ratio at 90 min (MDR1 and BCRP),pIC50 (PARP3)
"CNC(=O)c1ccc(N2CCN(Cc3ccc4nc(C)c(=O)[nH]c4c3C)CC2)c(Cl)n1 [Example 3, 6-chloro-5-[4-[(2,5-dimethyl-3-oxo-4H-quinoxalin-6-yl)methyl]piperazin-1-yl]-N-methyl-pyridine-2-carboxamide]",< 4.00,< 4.00,< 4.00,8.52,1.3,< 4.00
"CCc1nc2ccc(CN3CCN(c4ccc(C(=O)NC)nc4F)CC3)c(Cl)c2[nH]c1=O [Example 9, 5-[4-[(5-chloro-2-ethyl-3-oxo-4H-quinoxalin-6-yl)methyl]piperazin-1-yl]-6-fluoro-N-methyl-pyridine-2-carboxamide]",–,–,–,8.40,0.4,–
"CNC(=O)c1ccc(N2CCN(Cc3ccc4nc(C(C)(F)F)c(=O)[nH]c4c3F)CC2)c(C)n1 [Example 19, 5-[4-[[2-(1,1-difluoroethyl)-5-fluoro-3-oxo-4H-quinoxalin-6-yl]methyl]piperazin-1-yl]-N,6-dimethyl-pyridine-2-carboxamide]",4.40,–,–,7.89,2.4,–
"CNC(=O)c1ccc(N2CCN(Cc3ccc4nc(C)c(=O)[nH]c4c3F)CC2)c(C(F)F)n1 [Example 21, 6-(difluoromethyl)-5-[4-[(5-fluoro-2-methyl-3-oxo-4H-quinoxalin-6-yl)methyl]piperazin-1-yl]-N-methyl-pyridine-2-carboxamide]",< 4.00,< 4.00,< 4.00,8.15,1.6,5.24
"CCc1nc2ccc(CN3CCN(c4ccc(C(=O)NC)nc4C(F)F)CC3)c(F)c2[nH]c1=O [Example 24, 6-(difluoromethyl)-5-[4-[(2-ethyl-5-fluoro-3-oxo-4H-quinoxalin-6-yl)methyl]piperazin-1-yl]-N-methyl-pyridine-2-carboxamide]",< 4.09,< 4.00,< 4.00,8.22,1.1,< 4.00
"CCc1nc2ccc(CN3CCN(c4ccc(C(=O)NC)nc4Cl)CC3)c(F)c2[nH]c1=O [Example 28, 6-chloro-5-[4-[(2-ethyl-5-fluoro-3-oxo-4H-quinoxalin-6-yl)methyl]piperazin-1-yl]-N-methyl-pyridine-2-carboxamide]",< 4.00,< 4.00,< 4.00,8.30,0.8,< 4.00
"CNC(=O)c1ccc(N2CCN(Cc3ccc4nc(C)c(=O)[nH]c4c3F)CC2)c(Cl)n1 [Example 30, 6-chloro-5-[4-[(5-fluoro-2-methyl-3-oxo-4H-quinoxalin-6-yl)methyl]piperazin-1-yl]-N-methyl-pyridine-2-carboxamide]",< 4.00,< 4.00,< 4.00,8.22,1.8,< 4.00
"CNC(=O)c1ccc(N2CCN(Cc3ccc4nc(C)c(=O)[nH]c4c3F)CC2)cn1 [Example 32, 5-[4-[(5-fluoro-2-methyl-3-oxo-4H-quinoxalin-6-yl)methyl]piperazin-1-yl]-N-methyl-pyridine-2-carboxamide]",< 4.00,< 4.00,< 4.00,8.15,–,< 4.00
"CNC(=O)c1ccc(N2CCN(Cc3ccc4nc(C(F)F)c(=O)[nH]c4c3F)CC2)c(C)n1 [Example 37, 5-[4-[[2-(difluoromethyl)-5-fluoro-3-oxo-4H-quinoxalin-6-yl]methyl]piperazin-1-yl]-N,6-dimethyl-pyridine-2-carboxamide]",4.24,–,–,7.59,5,–
"CNC(=O)c1ccc(N2CCN(Cc3ccc4nc(OC)c(=O)[nH]c4c3F)CC2)cn1 [Example 38, 5-[4-[(5-fluoro-2-methoxy-3-oxo-4H-quinoxalin-6-yl)methyl]piperazin-1-yl]-N-methyl-pyridine-2-carboxamide]",4.68,< 4.00,< 4.00,7.92,–,< 4.00
"CNC(=O)c1ccc(N2CCN(Cc3ccc4nc(OC)c(=O)[nH]c4c3F)CC2)c(F)n1 [Example 39, 6-fluoro-5-[4-[(5-fluoro-2-methoxy-3-oxo-4H-quinoxalin-6-yl)methyl]piperazin-1-yl]-N-methyl-pyridine-2-carboxamide]",< 4.00,< 4.00,< 4.00,8.22,1.9,< 4.00
"CNC(=O)c1ccc(N2CCN(Cc3ccc4nc(OC)c(=O)[nH]c4c3F)CC2)c(C)n1 [Example 40, 5-[4-[(5-fluoro-2-methoxy-3-oxo-4H-quinoxalin-6-yl)methyl]piperazin-1-yl]-N,6-dimethyl-pyridine-2-carboxamide]",< 4.00,4.89,< 4.00,7.96,2,< 4.00
"CNC(=O)c1ccc(N2CCN(Cc3ccc4nc(OC)c(=O)[nH]c4c3F)CC2)c(Cl)n1 [Example 41, 6-chloro-5-[4-[(5-fluoro-2-methoxy-3-oxo-4H-quinoxalin-6-yl)methyl]piperazin-1-yl]-N-methyl-pyridine-2-carboxamide]",< 4.00,< 4.00,< 4.00,8.30,2.4,< 4.00
"CCNC(=O)c1ccc(N2CCN(Cc3ccc4nc(C)c(=O)[nH]c4c3F)CC2)c(F)n1 [Example 45, N-ethyl-6-fluoro-5-[4-[(5-fluoro-2-methyl-3-oxo-4H-quinoxalin-6-yl)methyl]piperazin-1-yl]pyridine-2-carboxamide]",< 4.00,–,–,8.22,1.5,–
"CNC(=O)c1ccc(N2CCN(Cc3ccc4nc(C(F)(F)F)c(=O)[nH]c4c3F)CC2)c(C)n1 [Example 47, 5-[4-[[5-fluoro-3-oxo-2-(trifluoromethyl)-4H-quinoxalin-6-yl]methyl]piperazin-1-yl]-N,6-dimethyl-pyridine-2-carboxamide]",< 4.00,< 4.00,< 4.00,7.12,–,< 4.00
"CNC(=O)c1ccc(N2CCN(Cc3ccc4nc(C(F)(F)F)c(=O)[nH]c4c3F)CC2)c(F)n1 [Example 48, 6-fluoro-5-[4-[[5-fluoro-3-oxo-2-(trifluoromethyl)-4H-quinoxalin-6-yl]methyl]piperazin-1-yl]-N-methyl-pyridine-2-carboxamide]",4.59,< 4.00,< 4.00,7.41,8.8,< 4.00
"CNC(=O)c1ccc(N2CCN(Cc3ccc4nc(C(F)(F)F)c(=O)[nH]c4c3F)CC2)c(Cl)n1 [Example 49, 6-chloro-5-[4-[[5-fluoro-3-oxo-2-(trifluoromethyl)-4H-quinoxalin-6-yl]methyl]piperazin-1-yl]-N-methyl-pyridine-2-carboxamide]",4.96,< 4.00,< 4.00,7.37,–,< 4.54
